{"source": "patent US4888355A", "about": "“Indanes and their use as antiarrhythmic agents” (priority 1986, dated 1989)", "key": {"[1]": {"experiment": "Acute toxicity", "assay_type": "in vivo", "conditions": "mice", "method": "The LDO or the dose at which there was no mortality after 8 days was determined on mice and the DLO for the compounds of Example 1,3 and 4 was 100, 100 and 200 mg/kg, respectively."}, "[2]": {"biological_target": "T1, Kappa opiate receptor (Cavia porcellus, UniProt P41144)", "T1 construct": "Membrane culots preserved at -30° C. for about 30 days and prepared from guinea pig cerebellum; from tissue; host or cells: guinea pig cerebellum membranes", "T1 sequence (P41144 whole entry)": "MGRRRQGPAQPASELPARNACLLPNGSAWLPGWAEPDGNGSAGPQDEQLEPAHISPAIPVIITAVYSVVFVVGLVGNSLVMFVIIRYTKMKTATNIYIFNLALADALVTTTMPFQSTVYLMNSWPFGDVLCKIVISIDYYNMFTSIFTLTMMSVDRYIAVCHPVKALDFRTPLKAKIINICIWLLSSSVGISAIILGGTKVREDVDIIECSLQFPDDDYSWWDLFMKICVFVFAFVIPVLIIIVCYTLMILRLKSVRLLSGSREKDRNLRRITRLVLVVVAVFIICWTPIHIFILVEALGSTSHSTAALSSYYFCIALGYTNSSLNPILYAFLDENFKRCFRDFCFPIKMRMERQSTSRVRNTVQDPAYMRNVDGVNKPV", "experiment": "In vitro bonding of Kappa opiate receptor", "assay_type": "binding", "conditions": "guinea pig cerebellum membranes; 1 nM 3H ethylketocyclazocine; pH 7.7; 25° C., 40 minutes; read-out: CI50 (50% inhibiting concentration)", "method": "Membrane culots preserved at -30° C. for about 30 days and prepared from guinea pig cerebellum were suspended in buffered Tris pH of 7.7. 2 ml fractions were placed in hemolysis tubes and 1 nM of 9^3 H ethylketocyclazocine and 5×10^-6 M of test compound were added thereto (in triple). When the test product displaced more than 50% of the radioactivity tied specifically to the receptor, the test was repeated with a range of seven doses to determine the dose which inhibited by 50% the radioactivity tied specifically to the receptor which is deemed CI50. The non-specific bond was determined by the addition of the known product, U-50488 H [Lahti et al., Life Science, Vol. 31 (1982), p 2257], at 10^-5 M (in triple). The mixture was incubated at 25° C. for 40 minutes, placed in a bath at 0° C. for 5 minutes and vacuum filtered. The product was rinsed with buffered Tris at a pH of 7.7 and the radioactivity was counted in the presence of Trition scintillation. The results were expressed directly as the 50% inhibiting concentration (CI50) or the concentration of the test compound which reduced by 50% radioactivity specificity fixed to the standard receptor."}, "[3]": {"experiment": "In vivo analgesic activity, hot plate test", "conditions": "Mus musculus, sc, 0.5 h; female mice, copper plate 56° C.; subcutaneous; 30 minutes after treatment; read-out: DA100 (dose which increased the reaction time 100%)", "method": "In the hot plate test, female mice weighing 22 to 24 g were placed individually on a copper plate maintained at 56° C. and the reaction to the pain was manifested by licking of the paws by the animal. […] The mice were divided into homogenous group and the test compound was administered subcutaneously with one group receiving only the vehicle. The reaction time to pain was measured again 30 to 60 minutes after treatment and the dose which increased the reaction time 100% (DA100) 30 minutes after treatment as compared to the control animals was determined. The DA100 for the compound of Example 1 was 8 mg/kg."}, "[4]": {"experiment": "Antiarythmic activity, aconitine perfusion in anesthesized rats", "assay_type": "in vivo", "conditions": "male rats; 10 mg/kg intravenous, 5 minutes before aconitine perfusion 10 μg/mn; vs controls", "method": "Tracheotomized male rats weighing 300 to 350 g were anesthesized intraperitonally with 1.20 g/kg of urethane and were subjected to artifical respiration of 40 to 50 insufflations of 3 ml/minute. Needles were implanted subcutaneously to register the electrocardiogram of the rats by the signal of DII derivative. The test compounds were administered intraveinously and 5 minutes later, the jugular veins of the rats were perfused with 10 μg/mn or 0.2 ml of an aconitine solution and the time of appearance of troubles in the cardiac rhythm was noted. The results were expressed as a percentage of the elongation of time of the appearance of the cardiac rhythm troubles as compared to the controls and as a function of the dose of the test compound."}, "[5]": {"experiment": "Diuretic activity", "assay_type": "in vivo", "conditions": "male Sprague-Dawley rats; 1 mg/kg; period t1h-t2h", "method": "Male rats of the Sprague-Dawley strain weighing 180 to 200 g were fasted for 17 hours before the test but received as much water as they desired. Groups of 8 rats were used for the test doses with the rats receiving the test compound or only the vehicle. The remaining volume was measured hourly for 2 hours after administration of the compound. At the end of this period, the urine was collected and the activity of the compounds was expressed as the percentage of variation calculated as the urinary volume in the period t1h -t2h."}}}
{"smiles": "CN(C(=O)Cc1ccc2ccccc2c1)[C@@H]1c2ccccc2C[C@H]1N1CCCC1", "note": "(racemic) [Example 4, Trans (±) N-[2,3-dihydro-2-(1-pyrrolidinyl)-1H-inden-1-yl]-N-methyl-2-naphthalene-acetamide]", "values": [{"measurement": "LDO (dose at which there was no mortality after 8 days)", "setting": "[1]", "result": 200, "unit": "mg/kg"}]}
{"smiles": "CN(C(=O)Cc1cccc2sccc12)[C@@H]1c2ccccc2C[C@H]1N1CCCC1", "note": "(racemic) [Example 1, Trans (±) N-[2,3-dihydro-2-(pyrrolidin-1-yl)-1H-inden-1-yl]-N-methyl-4-benzo[b]thiophene-acetamide]", "values": [{"measurement": "IC50", "setting": "[2]", "result": 1.8, "unit": "nM"}, {"measurement": "ED (100% increase in reaction time)", "setting": "[3]", "result": 8, "unit": "mg/kg"}, {"measurement": "% elongation of time of the appearance of the cardiac rhythm troubles", "setting": "[4]", "result": "+65%"}, {"measurement": "% Variation (urinary volume)", "setting": "[5]", "result": "+131%"}, {"measurement": "LDO (dose at which there was no mortality after 8 days)", "setting": "[1]", "result": 100, "unit": "mg/kg"}]}
{"smiles": "CN(C(=O)Cc1cccc2ccccc12)[C@@H]1c2ccccc2C[C@H]1N1CCCC1", "note": "(racemic) [Example 3, trans (±) N-[2,3-dihydro-2-(1-pyrrolidinyl)-1H-inden-1-yl]-N-methyl-1-naphthalene-acetamide]", "values": [{"measurement": "IC50", "setting": "[2]", "result": 4.9, "unit": "nM"}, {"measurement": "% Variation (urinary volume)", "setting": "[5]", "result": "+267%"}, {"measurement": "LDO (dose at which there was no mortality after 8 days)", "setting": "[1]", "result": 100, "unit": "mg/kg"}]}
